The values that follow come from PMC10748408 (Frontiers in Oncology, 2023).

This series deals with TLR4. The series is described as follows: TLR4 silencing by vivo-morpholino, western blot of tumors. The format is in vivo, BALB/c mice. Conditions: tumor-bearing mice, with 25 mg/kg ART, vs SC-MO, p<0.001. The protocol:
Normal and tumor tissues were homogenized in ice-cold radioimmunoprecipitation assay (RIPA) buffer containing a protease inhibitor cocktail. Proteins were resolved by 10% sodium dodecyl sulphate-polyacrylamide gel electrophoresis (SDS-PAGE), transferred onto polyvinylidene difluoride (PVDF) membranes, blocked with 5% fat-free milk and incubated with primary antibodies (1:1000 dilution) overnight at 4°C. Blots were subsequently washed and incubated with respective secondary antibodies, tagged with horseradish peroxidase. Protein expression was detected using enhanced chemiluminescence (ECL) kit ([37]). Blots were analyzed using the Gel Doc XR and band intensity quantified using ImageJ software (NIH, USA).
Murine mammary tumors were allowed to develop in BALB/c mice injected with 10^7 4T1 cells. […] Control groups were set up, where normal mice and mice-bearing tumors received PBS for 7 days. At the end of the experiment, tissues were harvested and processed for subsequent experiments.

Regarding “TLR4-VMO: vivo morpholino oligomers against TLR4 mRNA; 5' CAGGGAGGCATCATCCTGGCATTTT 3' (all phosphorodiamidate morpholino (PMO); vivo-morpholino from GeneTools, further chemistry not fully specified)”, the TLR4 expression entry is on record as “significantly diminished”.
